The values below come from US20250115598A1 (Anaxis Pharma Pty Ltd, priority 2021, published 2025).

Where two headings read alike, the source gives them in different places.

The subject of one assay is U937 cells. The assay can be described thus: Counter screen: cell viability without the TSQ cocktail (off-target effect). More on the design: species or system human. The protocol: • Cell Line ID: U937 human histiocytic leukemia cell line. • Cell Concentration (cells/well): Final cell density is 20000 cells per well. • Cell growth medium: HT-RPMI medium+7.4% Fetal Bovine Serum (FBS). Cells are cultured in Corning 150 cm^2 tissue culture flasks with vented caps at 37° C./5% CO2. • Incubation: Plates were incubated at 37° C./5% CO2 in a humidified incubator for 48 hours following addition of compounds and death stimuli (TSQ cocktail). • Compound concentration: 36 μM starting concentration, 1:3 dilution, 10 point • DMSO final concentration (% v/v): 0.3%. Compounds in TSQ Cocktail (T: TNF; S: Smac Mimetic; Q: Q-VD-OPh) and their Final Concentrations: • hTNF-Fc (100 ng/ml)—produced by standard procedures as shown in Bossen et al., J. Biol. Chem., 2006, 281(20), 13964-13971. • Compound A (500 nM)—Smac mimetic, Tetralogic and SYNthesis med chem • Q-VD-OPh (10 μM)—MP Biomedicals
The cellular assay was carried out according to the following steps: • 1. Each well was prepared by sequential addition of: • a. DMSO (control; columns 1-2 and 23-24) or compound in DMSO—addition was performed using acoustic transfer of nL volumes of stock compound to give final test concentrations of 36, 12, 4, 1.3, 0.44, 0.148, 0.049, 0.016, 0.005 and 0.002 μM. All wells were backfilled with DMSO to a final total volume in the well of 100 nL. • b. Following compound/DMSO addition in step (a), 40 μL of cell suspension (5×10^5 cells/mL) was added to provide a final cell concentration of 20,000 cells per well, and • c. Following cell addition in step (b), 10 μL of 5×TSQ cocktail (except to positive controls; columns 1 and 23) was added to each well. • 2. After 48 hours, plate was removed from the 37° C. incubator and equilibrated to room temperature for 45 minutes. • 3.15 μL of room temperature CellTitre-Glo2™ (Promega™) was added to each well. • 4. Shook plates for 2 minutes (˜600 rpm) and incubated at room temperature for 15 minutes to allow signal to stabilise. • 5. Read luminescence readout on a plate reader.
• Assay involving the TSQ cocktail (T: TNF; S: Smac mimetic; Q: Q-VD-OPh): TSQ treatment ensures that cells specifically undergo necroptotic cell death. TNF activates the TNF receptor, Smac mimetic directs the signal away from proinflammatory signaling and toward the RIPK1/RIPK3-mediated cell death pathways, and Q-VD-OPh ensures that the apoptotic response is blocked leaving only the programmed necrosis response. The compounds' activity (solution in DMSO) tested in this TSQ-induced assay was evaluated by determining the number of viable cells in culture by measuring the amount of ATP present as measured by CelltiterGlo. • Counter screen: In parallel, all compounds were tested for their ability to affect cell viability. The same U937 cells were treated with compound in DMSO without the TSQ cocktail. This counter screen enabled evaluation of off-target effects. In this case, cell viability was measured by CelltiterGlo.
In general terms: The purpose of a counterscreen is to sort out artefacts and off-target activity.

Another assay has as its target human RIPK1 (Homo sapiens (Human), UniProt Q13546). As to the kind of experiment: KINOMEscan binding assay, human RIPK1. The note with it: Table 21. The method, boiled down: (§1)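 Kd values come from dose-response fits to the Hill equation (Hill slope −1, Levenberg–Marquardt least squares). Compound competed with bead-bound ligand for tagged kinase, and remaining kinase was measured by qPCR after elution. Dilution series: 11 points, 3-fold, 1% DMSO final, top 30,000 nM in most runs.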

The target in a further assay is human RIPK3 (Homo sapiens (Human), UniProt Q9Y572). The assay can be described thus: KINOMEscan binding assay, human RIPK3. As to conditions: Table 21. The method, boiled down:
as §1

Assay [1] has as its system Immortalised Mouse Dermal Fibroblasts (MDFs). The assay can be described thus: Cellular assay: inhibition of TSI induced necroptosis, CellTitre-Glo viability. As to conditions: Mus musculus, Fibroblast; MDF, 3 hours TSI cocktail, Table 27; read-out: Inhibition of TSI-induced necroptosis (IC50 cell-based assay) in MDF. The procedure, abridged: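 Immortalised mouse dermal fibroblasts (2200 cells/well) pretreated 30 min with compound, 10-point 1:3 series from 36 μM, 0.3% DMSO. Then 3 h at 37° C. with TNF (100 ng/ml), Smac mimetic (500 nM) and IDN-6556 (10 μM). CellTiter-Glo luminescence normalised to DMSO (100%) and DMSO+TSI (0%); IC50 from 4-parameter logistic fit.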

For the next assay, the target named is endogenous MLKL in U937 (Homo sapiens (Human), UniProt Q8NB16). As to the kind of experiment: Degradation assay: endogenous MLKL in U937 (western blot). The note with it: U937, 24 h incubation, read-out: Degradation of endogenous MLKL in U937 (DC50 cell-based assay). The method, boiled down:
(§2)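 MDF (seeded the day before) or U937 cells were treated 24 h at 37 °C, 10% CO2 with compound at 10, 2, 0.4, 0.08 and 0.016 μM final. Endogenous MLKL was quantified by western blot (anti-MLKL 3H1), normalized to GAPDH. Percent degradation was taken relative to DMSO control.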
(In western blotting, separated proteins are transferred to a membrane and probed.)

Another assay addresses endogenous MLKL in MDF (Mus musculus (Mouse), UniProt Q9D2Y4). As to the kind of experiment: Degradation assay: endogenous MLKL in MDF (western blot). The note with it: MDF cells, 24 h incubation with compound, MLKL adjusted for loading with GAPDH, normalized to DMSO only control, read-out: Degradation of endogenous MLKL in MDF (DC50 cell-based assay). The method, boiled down:
as §2

The next assay has as its target human MLKL (full length) (Homo sapiens (Human), UniProt Q8NB16). The assay can be described thus: KINOMEscan binding assay, human MLKL (full length). As to conditions: hMLKL, Table 25; read-out: MLKL (KD). The procedure, abridged: as §1
Setting [2] is: Homo sapiens, U-937, Table 23, read-out: Off-target effect (IC50 cell-based assay).

For orientation: IC50 means the concentration needed to halve the response being measured. Broadly, the Kd is the concentration at which binding is half-saturated. As usually defined, the DC50 is the concentration giving 50% degradation.

Chain of endogenous MLKL in U937 (Q8NB16 whole entry): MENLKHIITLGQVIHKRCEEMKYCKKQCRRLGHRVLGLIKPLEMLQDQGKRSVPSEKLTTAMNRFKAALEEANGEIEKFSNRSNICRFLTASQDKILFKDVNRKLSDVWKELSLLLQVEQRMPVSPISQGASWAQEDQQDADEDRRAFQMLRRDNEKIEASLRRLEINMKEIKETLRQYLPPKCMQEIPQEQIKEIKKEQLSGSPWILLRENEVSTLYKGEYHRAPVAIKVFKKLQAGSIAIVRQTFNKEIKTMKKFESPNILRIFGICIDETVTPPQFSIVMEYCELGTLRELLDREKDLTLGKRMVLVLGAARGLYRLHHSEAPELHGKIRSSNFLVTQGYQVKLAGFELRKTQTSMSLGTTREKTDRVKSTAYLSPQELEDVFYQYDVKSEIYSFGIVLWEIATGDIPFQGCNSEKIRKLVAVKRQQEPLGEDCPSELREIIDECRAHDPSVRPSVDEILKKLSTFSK
Chain of human MLKL (full length) (Q8NB16 whole entry): as above
Chain of endogenous MLKL in MDF (Q9D2Y4 whole entry): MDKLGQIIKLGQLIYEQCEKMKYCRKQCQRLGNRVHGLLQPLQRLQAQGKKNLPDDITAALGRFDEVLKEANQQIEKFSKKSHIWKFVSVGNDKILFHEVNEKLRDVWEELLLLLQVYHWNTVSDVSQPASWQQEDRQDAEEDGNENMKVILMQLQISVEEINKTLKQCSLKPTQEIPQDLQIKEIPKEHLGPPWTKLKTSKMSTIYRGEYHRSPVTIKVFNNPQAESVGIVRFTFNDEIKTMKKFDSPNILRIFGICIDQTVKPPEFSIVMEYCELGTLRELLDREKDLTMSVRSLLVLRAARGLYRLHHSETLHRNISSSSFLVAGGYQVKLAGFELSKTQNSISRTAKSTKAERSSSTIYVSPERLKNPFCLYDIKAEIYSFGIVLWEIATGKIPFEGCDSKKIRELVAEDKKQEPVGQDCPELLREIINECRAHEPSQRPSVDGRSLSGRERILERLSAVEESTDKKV
Chain of human RIPK1 (Q13546 whole entry): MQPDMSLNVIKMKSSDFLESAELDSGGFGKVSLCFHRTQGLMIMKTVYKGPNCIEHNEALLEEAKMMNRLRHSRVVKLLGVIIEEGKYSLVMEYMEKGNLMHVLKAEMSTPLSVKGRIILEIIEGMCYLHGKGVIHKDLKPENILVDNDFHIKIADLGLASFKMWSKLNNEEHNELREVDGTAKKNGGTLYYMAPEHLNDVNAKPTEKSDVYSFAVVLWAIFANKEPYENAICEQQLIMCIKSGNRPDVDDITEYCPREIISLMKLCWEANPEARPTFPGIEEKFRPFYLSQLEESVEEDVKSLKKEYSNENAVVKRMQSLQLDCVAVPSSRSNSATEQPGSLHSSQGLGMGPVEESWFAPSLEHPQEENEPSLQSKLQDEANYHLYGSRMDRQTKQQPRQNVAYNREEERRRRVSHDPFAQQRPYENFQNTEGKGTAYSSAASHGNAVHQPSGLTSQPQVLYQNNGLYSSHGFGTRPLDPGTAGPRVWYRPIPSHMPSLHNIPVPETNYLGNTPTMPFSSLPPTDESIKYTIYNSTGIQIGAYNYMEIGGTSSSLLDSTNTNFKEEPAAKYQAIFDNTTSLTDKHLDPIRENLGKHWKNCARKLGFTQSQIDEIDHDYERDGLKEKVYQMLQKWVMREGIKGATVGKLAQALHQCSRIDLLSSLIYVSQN
Chain of human RIPK3 (Q9Y572 whole entry): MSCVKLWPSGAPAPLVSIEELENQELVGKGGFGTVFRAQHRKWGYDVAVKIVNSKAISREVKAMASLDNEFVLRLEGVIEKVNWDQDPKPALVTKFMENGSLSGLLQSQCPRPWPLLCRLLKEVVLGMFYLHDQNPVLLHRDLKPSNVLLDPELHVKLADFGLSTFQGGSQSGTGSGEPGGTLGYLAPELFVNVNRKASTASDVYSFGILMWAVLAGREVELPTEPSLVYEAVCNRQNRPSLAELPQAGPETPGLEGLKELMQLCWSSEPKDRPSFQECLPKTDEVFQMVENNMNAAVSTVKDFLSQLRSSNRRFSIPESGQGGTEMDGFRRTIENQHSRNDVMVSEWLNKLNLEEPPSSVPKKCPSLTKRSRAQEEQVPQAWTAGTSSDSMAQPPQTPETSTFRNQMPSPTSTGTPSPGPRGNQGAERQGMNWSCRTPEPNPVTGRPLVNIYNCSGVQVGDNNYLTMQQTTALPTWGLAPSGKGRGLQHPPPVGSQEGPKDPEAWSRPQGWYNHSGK

In the case of `C[C@H](Oc1cc(-c2nn(C)c3c(-c4cnn(C5CCN(C)C6(CC6)C5)c4)cnc(N)c23)ccc1NS(=O)(=O)C(F)F)c1ccc(F)cc1` (single isomer, unassigned) [Compound 171, N-(4-(4-amino-1-methyl-7-(1-((R*)-4-methyl-4-azaspiro[2.5]octan-7-yl)-1H-pyrazol-4-yl)-1H-pyrazolo[4,3-c]pyridin-3-yl)-2-((S)-1-(4-fluorophenyl)ethoxy)phenyl)-1,1-difluoromethanesulfonamide], in the assay with U937 cells (Table 23, read-out: Off-target effect (IC50 cell-based assay)), the IC50 was above 10000 nM.

Take `C[C@H](Oc1cc(-c2nn(C)c3c(-c4ccnc(C(C)(C)C)c4)cnc(N)c23)ccc1NS(=O)(=O)C(F)F)c1ccc(F)cc1` [Compound 48, (S)-N-(4-(4-amino-7-(2-(tert-butyl)pyridin-4-yl)-1-methyl-1H-pyrazolo[4,3-c]pyridin-3-yl)-2-(1-(4-fluorophenyl)ethoxy)phenyl)-1,1-difluoromethanesulfonamide]: the Kd on human RIPK1 and at human RIPK3 was above 10000 nM in each case. For the same compound, the IC50 in the assay on U937 cells (setting [2]) lay in the range of 1000 to 10000 nM.

Consider `C[C@H](Oc1cc(-c2nn(C)c3c(-c4cnn(C5CCN(C)C6(CC6)C5)c4)cnc(N)c23)ccc1NS(=O)(=O)C(F)F)c1ccc(F)cc1` (single isomer, unassigned) [Compound 170, N-(4-(4-amino-1-methyl-7-(1-((S*)-4-methyl-4-azaspiro[2.5]octan-7-yl)-1H-pyrazol-4-yl)-1H-pyrazolo[4,3-c]pyridin-3-yl)-2-((S)-1-(4-fluorophenyl)ethoxy)phenyl)-1,1-difluoromethanesulfonamide], for which the IC50 in the assay with U937 cells (setting [2]) is above 10000 nM.

Regarding `Cc1ncsc1-c1ccc(CNC(=O)[C@@H]2C[C@@H](O)CN2C(=O)[C@@H](NC(=O)C2(F)CC2)C(C)(C)C)c(OCCCCCCn2cc(-c3cnc(N)c4c(-c5ccc(NS(=O)(=O)C(F)F)c(O[C@@H](C)c6ccc(F)cc6)c5)nn(C)c34)cn2)c1` [Compound 1057, (2S,4R)-N-[(2-{[6-(4-{4-amino-3-[4-(difluoromethanesulfonamido)-3-[(1S)-1-(4-fluorophenyl)ethoxy]phenyl]-1-methyl-1H-pyrazolo[4,3-c]pyridin-7-yl}-1H-pyrazol-1-yl)hexyl]oxy}-4-(4-methyl-1,3-thiazol-5-yl)phenyl)methyl]-1-[(2S)-2-[(1-fluorocyclopropyl)formamido]-3,3-dimethylbutanoyl]-4-hydroxypyrrolidine-2-carboxamide], in assay [1], the IC50 was 1000 to 10000 nM. The DC50 was below 1000 nM at endogenous MLKL in U937 and 1000 to 10000 nM on endogenous MLKL in MDF. For the same compound, the Kd at human MLKL (full length) was in the range of 10 to 1000 nM.

Consider `C[C@H](Oc1cc(-c2nn(C)c3c(-c4cnn(C5CCN(C(=O)CC6CN(c7cccc8c7C(=O)N(C7CCC(=O)NC7=O)C8=O)CCO6)CC5)c4)cnc(N)c23)ccc1NS(=O)(=O)C(F)F)c1ccc(F)cc1` (stereo partly drawn) [Compound 1081, N-[4-(4-amino-7-{1-[1-(2-{4-[2-(2,6-dioxopiperidin-3-yl)-1,3-dioxo-2,3-dihydro-1H-isoindol-4-yl]morpholin-2-yl}acetyl)piperidin-4-yl]-1H-pyrazol-4-yl}-1-methyl-1H-pyrazolo[4,3-c]pyridin-3-yl)-2-[(1S)-1-(4-fluorophenyl)ethoxy]phenyl]-1,1-difluoromethanesulfonamide], for which, in assay [1], the IC50 is below 1000 nM. Further, the DC50 at endogenous MLKL in U937 and on endogenous MLKL in MDF was below 1000 nM each time. For the same compound, at human MLKL (full length), the Kd was below 10 nM.

As to `Cc1ncsc1-c1ccc(CNC(=O)[C@@H]2C[C@@H](O)CN2C(=O)[C@@H](NC(=O)C2(F)CC2)C(C)(C)C)c(OCCCCCn2cc(-c3cnc(N)c4c(-c5ccc(NS(=O)(=O)C(F)F)c(O[C@@H](C)c6ccc(F)cc6)c5)nn(C)c34)cn2)c1` [Compound 1068, (2S,4R)-N-[(2-{[5-(4-{4-amino-3-[4-(difluoromethanesulfonamido)-3-[(1S)-1-(4-fluorophenyl)ethoxy]phenyl]-1-methyl-1H-pyrazolo[4,3-c]pyridin-7-yl}-1H-pyrazol-1-yl)pentyl]oxy}-4-(4-methyl-1,3-thiazol-5-yl)phenyl)methyl]-1-[(2S)-2-[(1-fluorocyclopropyl)formamido]-3,3-dimethylbutanoyl]-4-hydroxypyrrolidine-2-carboxamide], the IC50 in assay [1] lay in the range of 1000 to 10000 nM. The DC50 at endogenous MLKL in U937 was 1000 to 10000 nM; on endogenous MLKL in MDF, below 1000 nM. The Kd on human MLKL (full length) is 10 to 1000 nM.

As for `C[C@H](Oc1cc(-c2nn(C)c3c(-c4cnn(C5CCN(C(=O)C6CCN(c7cccc8c7C(=O)N(C7CCC(=O)NC7=O)C8=O)C6)CC5)c4)cnc(N)c23)ccc1NS(=O)(=O)C(F)F)c1ccc(F)cc1` (stereo partly drawn) [Compound 1054, N-(4-{4-amino-7-[1-(1-{1-[2-(2,6-dioxopiperidin-3-yl)-1,3-dioxo-2,3-dihydro-1H-isoindol-4-yl]pyrrolidine-3-carbonyl}piperidin-4-yl)-1H-pyrazol-4-yl]-1-methyl-1H-pyrazolo [4,3-c]pyridin-3-yl}-2-[(1S)-1-(4-fluorophenyl)ethoxy]phenyl)-1,1-difluoromethanesulfonamide], the IC50 in assay [1] was below 1000 nM. The DC50 at endogenous MLKL in U937 and on endogenous MLKL in MDF was below 1000 nM throughout. The Kd on human MLKL (full length) fell in the range of 10 to 1000 nM.

Turning to `C[C@H](Oc1cc(-c2nn(C)c3c(-c4cnn(C5CCN(C(=O)[C@H]6C[C@@H]6C6CCN(c7cccc8c7C(=O)N(C7CCC(=O)NC7=O)C8=O)CC6)CC5)c4)cnc(N)c23)ccc1NS(=O)(=O)C(F)F)c1ccc(F)cc1` (stereo in doubt) [Compound 1130, N-[4-(4-amino-7-{1-[1-(2-{1-[2-(2,6-dioxopiperidin-3-yl)-1,3-dioxo-2,3-dihydro-1H-isoindol-4-yl]piperidin-4-yl}-(trans)-cyclopropanecarbonyl)piperidin-4-yl]-1H-pyrazol-4-yl}-1-methyl-1H-pyrazolo[4,3-c]pyridin-3-yl)-2-[(1S)-1-(4-fluorophenyl)ethoxy]phenyl]-1,1-difluoromethane-sulfonamide], the IC50 in assay [1] was below 1000 nM. For the same compound, the DC50 on endogenous MLKL in U937 and at endogenous MLKL in MDF was below 1000 nM throughout. Moreover, the Kd at human MLKL (full length) lay in the range of 10 to 1000 nM.
